Assay results taken from ChEMBL document CHEMBL1201862, “PubChem BioAssay data set” (2004).
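Growth conditions: 96-well plates. Treatment: test compound, 48 hours, 5 concentrations. Analysis: linear interpolation between bracketing concentrations; unreached endpoints set to highest concentration. GI50: concentration for 50% inhibition of growth.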 Calls of active or inactive are those of the source. No stated cut-off is given here; in the data, active = GI50 up to about 1.1 µM and inactive = higher.

Key:
Test in all cases: NCI-60 cell line screen, 48 h
[1] = tested on: A549
[2] = tested on: CAKI-1
[3] = tested on: CCRF-CEM
[4] = tested on: HOP-62
[5] = tested on: HOP-92
[6] = tested on: HT-29
[7] = tested on: KM12
[8] = tested on: LOX IMVI
[9] = tested on: Malme-3M
[10] = tested on: NCI-H226
[11] = tested on: OVCAR-5
[12] = tested on: RPMI-8226
[13] = tested on: SN12C
[14] = tested on: SR
[15] = tested on: TK-10
[16] = tested on: U-251
[17] = tested on: Hs-578T
[18] = tested on: NCI/ADR-RES
[19] = tested on: PC-3
[20] = tested on: MDA-N

| Compound | GI50 [1] | GI50 [2] | GI50 [3] | GI50 [4] | GI50 [5] | GI50 [6] | GI50 [7] | GI50 [8] | GI50 [9] | GI50 [10] | GI50 [11] | GI50 [12] | GI50 [13] | GI50 [14] | GI50 [15] | GI50 [16] | GI50 [17] | GI50 [18] | GI50 [19] | GI50 [20] |
| --- | --- | --- | --- | --- | --- | --- | --- | --- | --- | --- | --- | --- | --- | --- | --- | --- | --- | --- | --- | --- |
| O=C(O)c1ccc([I+]c2ccccc2)cc1 | > 100 µM (inactive) | > 100 µM (inactive) | > 100 µM (inactive) | > 100 µM (inactive) | > 100 µM (inactive) | > 100 µM (inactive) | > 100 µM (inactive) | > 100 µM (inactive) | > 100 µM (inactive) | > 100 µM (inactive) | > 100 µM (inactive) | > 100 µM (inactive) | > 100 µM (inactive) | > 100 µM (inactive) | > 100 µM (inactive) | > 100 µM (inactive) |  |  |  |  |
| C=C1C(=O)OC2C1C(=O)C/C(C)=C/CCC1(C)OC21 (centres undefined) | 19.4 µM (inactive) | 14.7 µM (inactive) | 2.79 µM (inactive) | 14.2 µM (inactive) | 15.2 µM (inactive) | 20.6 µM (inactive) | 23.6 µM (inactive) | 2.47 µM (inactive) |  | 15.8 µM (inactive) | 17.7 µM (inactive) | 12.3 µM (inactive) | 22.1 µM (inactive) | 3.33 µM (inactive) | 16.1 µM (inactive) | 19.5 µM (inactive) | 44.1 µM (inactive) | 31 µM (inactive) | 18.1 µM (inactive) |  |
| CC1(C)CSCC(C)(C)C(=N/N)/C1=N\N | > 100 µM (inactive) | > 100 µM (inactive) |  | > 100 µM (inactive) | > 100 µM (inactive) | > 100 µM (inactive) | > 100 µM (inactive) | > 100 µM (inactive) | > 100 µM (inactive) | > 100 µM (inactive) | > 100 µM (inactive) |  | > 100 µM (inactive) | > 100 µM (inactive) | > 100 µM (inactive) | > 100 µM (inactive) |  | > 100 µM (inactive) | > 100 µM (inactive) | > 100 µM (inactive) |
| O=c1[nH]nc(Cc2ccc(Cl)cc2)n1/N=C/c1ccco1 | > 100 µM (inactive) | > 100 µM (inactive) | > 100 µM (inactive) | 48.6 µM (inactive) | 93.8 µM (inactive) | 33.1 µM (inactive) | > 100 µM (inactive) |  | > 100 µM (inactive) | 84.5 µM (inactive) | > 100 µM (inactive) | > 100 µM (inactive) | > 100 µM (inactive) | > 100 µM (inactive) |  | 39.7 µM (inactive) |  | 96.8 µM (inactive) | > 100 µM (inactive) | > 100 µM (inactive) |
| CC(=O)/C(=C/n1c(=S)sc2ccccc21)C(=O)Nc1ccccc1C | > 100 µM (inactive) | 48 µM (inactive) |  | > 100 µM (inactive) | 41.1 µM (inactive) | > 100 µM (inactive) | > 100 µM (inactive) | > 100 µM (inactive) |  | 31.1 µM (inactive) | > 100 µM (inactive) |  | > 100 µM (inactive) |  | > 100 µM (inactive) | > 100 µM (inactive) |  | > 100 µM (inactive) |  | > 100 µM (inactive) |
| Cc1ccc(-n2nnc3c(NNc4ccccc4)n[nH]c(=O)c32)cc1 | 55.6 µM (inactive) | > 100 µM (inactive) | 92 µM (inactive) | 66.2 µM (inactive) | 23.1 µM (inactive) | 57.9 µM (inactive) | > 100 µM (inactive) | > 100 µM (inactive) | > 100 µM (inactive) | 70 µM (inactive) | > 100 µM (inactive) | > 100 µM (inactive) | > 100 µM (inactive) | > 100 µM (inactive) | 28.1 µM (inactive) | 52.1 µM (inactive) |  | 76.7 µM (inactive) | 78.2 µM (inactive) |  |
| C1=N\CCN2CCN(CC/N=C\c3ccc(cc3)OCc3cccc(n3)COc3ccc/1cc3)CC2 | > 50 µM (inactive) |  | > 50 µM (inactive) | > 50 µM (inactive) | 40.4 µM (inactive) | > 50 µM (inactive) | > 50 µM (inactive) |  | 26.9 µM (inactive) | > 50 µM (inactive) | > 50 µM (inactive) | > 50 µM (inactive) | > 50 µM (inactive) | > 50 µM (inactive) | > 50 µM (inactive) | > 50 µM (inactive) | 32.7 µM (inactive) | > 50 µM (inactive) | > 50 µM (inactive) |  |
| O=C(N/N=C/c1ccccc1)c1c(-c2cccnc2)cnc2ccccc12 | > 100 µM (inactive) | > 100 µM (inactive) | > 100 µM (inactive) | 87.7 µM (inactive) | > 100 µM (inactive) | 42.1 µM (inactive) | 33 µM (inactive) |  | > 100 µM (inactive) | > 100 µM (inactive) | > 100 µM (inactive) | > 100 µM (inactive) | > 100 µM (inactive) | 77.1 µM (inactive) | > 100 µM (inactive) | 56.4 µM (inactive) |  | 69.5 µM (inactive) | > 100 µM (inactive) | 29.2 µM (inactive) |
| Cc1ccc2c(n1)NC(=O)C(Cc1ccccc1)(N=[N+]=[N-])C2=O (centres undefined) | > 100 µM (inactive) | > 100 µM (inactive) | > 100 µM (inactive) | > 100 µM (inactive) | > 100 µM (inactive) | > 100 µM (inactive) | > 100 µM (inactive) |  | > 100 µM (inactive) | > 100 µM (inactive) | > 100 µM (inactive) |  | > 100 µM (inactive) | > 100 µM (inactive) | > 100 µM (inactive) | > 100 µM (inactive) |  | > 100 µM (inactive) | > 100 µM (inactive) | > 100 µM (inactive) |
| N#Cc1c(-c2ccc([N+](=O)[O-])cc2)cc(-c2ccc(Nc3ccnc4cc(Cl)ccc34)cc2)[nH]c1=O | > 100 µM (inactive) | > 100 µM (inactive) |  | 67.3 µM (inactive) | > 100 µM (inactive) |  | 4.01 µM (inactive) | > 100 µM (inactive) | > 100 µM (inactive) | > 100 µM (inactive) | > 100 µM (inactive) | > 100 µM (inactive) |  | > 100 µM (inactive) | 98.9 µM (inactive) | > 100 µM (inactive) |  | > 100 µM (inactive) | > 100 µM (inactive) |  |
| CCCCCC/C(CC(=O)CCC(=O)NCCc1ccccc1)=N\Nc1ccc([N+](=O)[O-])cc1[N+](=O)[O-] | 87.7 µM (inactive) | > 100 µM (inactive) | 22.1 µM (inactive) | > 100 µM (inactive) | 41.7 µM (inactive) | > 100 µM (inactive) | 67.8 µM (inactive) | 34.7 µM (inactive) | > 100 µM (inactive) | 60.4 µM (inactive) | > 100 µM (inactive) | 27 µM (inactive) | 82 µM (inactive) | 20.6 µM (inactive) | > 100 µM (inactive) | 97.1 µM (inactive) |  |  |  |  |
| COC1=CC(C2c3cc4c(cc3[C@@H](Nc3ccc(F)cc3)C3COC(=O)[C@H]23)OCO4)=CC(=O)C1=O (some centres undefined) | 1.36 µM (inactive) | 4.48 µM (inactive) | 2.49 µM (inactive) | 1.61 µM (inactive) | 6.92 µM (inactive) | 20.2 µM (inactive) | 13.3 µM (inactive) | 7.78 µM (inactive) | 13.7 µM (inactive) | 11.1 µM (inactive) | 19.9 µM (inactive) | 10.5 µM (inactive) | 4.32 µM (inactive) | 0.506 µM (active) | 19.2 µM (inactive) | 2.78 µM (inactive) |  |  |  |  |
